Laboratory results from ChEMBL document CHEMBL1150962, “Activity-guided isolation of steroidal alkaloid antiestrogen-binding site inhibitors from Pachysandra procumbens” (J Nat Prod, 1998).
pIC50: −log10 of the molar value. Active and inactive are the calls of the source. The calls are words filed in the database; no cut-off is given here.

What was measured:
Ishikawa [1] = experiment: Potentiation of tamoxifen-induced antiestrogenic activity in human Ishikawa cells assessed as decrease in tamoxifen IC50 at 2 ug/ml after 4 days by ELISA; assay type: functional, cell-based
[2] = target: Anti-estrogen binding site (Rattus norvegicus); experiment: Displacement of [3H]tamoxifen from antiestrogen binding site in Sprague-Dawley rat liver by liquid scintillation counting
Ishikawa [3] = experiment: Potentiation of tamoxifen-induced antiestrogenic activity in human Ishikawa cells assessed as decrease in tamoxifen IC50 at 1 ug/ml after 4 days by ELISA; assay type: functional, cell-based
Ishikawa [4] = experiment: Antiestrogenic activity in human Ishikawa cells assessed as inhibition of estrogen-induced alkaline phosphatase activity after 4 days by ELISA; details: 96 h

| SMILES | pIC50 [2] | pIC50 (Ishikawa [4]) | Activity (Ishikawa [1]) | Activity (Ishikawa [3]) |
| --- | --- | --- | --- | --- |
| CC(C)[C@@H]1CN(C2=CC[C@@]3(C)[C@@H](CC[C@@H]4[C@@H]3CC[C@]3(C)[C@@H]([C@H](C)N(C)C)[C@@H](O)C[C@@H]43)C2=O)C1=O | 5.46 | – | Active | – |
| C[C@@H]([C@H]1CC[C@H]2[C@@H]3CC[C@H]4C(=O)C(NC(=O)c5ccccc5)=CC[C@]4(C)[C@H]3CC[C@]12C)N(C)C | 5.10 | – | Active | – |
| C[C@@H]([C@H]1CC[C@H]2[C@@H]3CC[C@H]4C[C@]5(CC[C@]4(C)[C@H]3CC[C@]12C)c1ccccc1C(=O)N5C)N(C)C | 5.13 | – | Active | – |
| CC(=O)O[C@H]1[C@@H](N2C(=O)c3ccccc3C2=O)[C@H](O)C[C@]2(C)[C@H]3CC[C@]4(C)[C@@H]([C@H](C)N(C)C)CC[C@H]4[C@@H]3CC[C@@H]12 | – | – | Active | – |
| CC(C)[C@@H]1CN(C2=CC[C@@]3(C)[C@@H](CC[C@@H]4[C@@H]3CC[C@]3(C)[C@@H]([C@H](C)N(C)C)CC[C@@H]43)C2=O)C1=O | – | – | Active | – |
| CC/C(=C(\c1ccccc1)c1ccc(OCCN(C)C)cc1)c1ccccc1 [TAMOXIFEN] | – | 6.38 | – | – |

Now from value to compound, other results behind:

| pIC50 [2] | pIC50 (Ishikawa [4]) | SMILES | Activity (Ishikawa [1]) | Activity (Ishikawa [3]) |
| --- | --- | --- | --- | --- |
| 6.40 | – | CO[C@H]1CC[C@@]2(C)C(=CC[C@H]3[C@@H]4CC[C@H]([C@H](C)N(C)C)[C@@]4(C)CC[C@@H]32)C1 | Active | – |
| 6.22 | – | CC(=O)O[C@H]1C(NC(=O)c2ccccc2)=CC[C@]2(C)[C@H]3CC[C@]4(C)[C@@H]([C@H](C)N(C)C)CC[C@H]4[C@@H]3CC[C@@H]12 | – | Active |
| 6.22 | – | CC(C)=CC(=O)N(C)[C@@H]1CC[C@@]2(C)[C@@H](CC[C@@H]3[C@@H]2CC[C@]2(C)[C@@H]([C@H](C)N(C)C)CC[C@@H]32)C1 [(+)-PACHYSAMINE B] | – | Active |
| < 4.70 | – | C[C@@H]([C@H]1CC[C@H]2[C@@H]3CC[C@H]4C[C@@H](NC(=O)c5ccccc5)CC[C@]4(C)[C@H]3CC[C@]12C)N(C)C [EPIPACHYSAMINE D] | Active | – |
